In PubChem BioAssay AID1963440 (Molecular Pharmacology Branch, DTP, NCI, 2024):
pIC50: −log10 of the molar value.

System: NCI-H1417 complex spheroids, growth % test/control
Assay: Anticancer human tumor NCI-H1417 cell line growth inhibition [Asc];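 also: spheroids exposed to compounds for 7 days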;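 as to viability, T/C: 100% = DMSO vehicle control wells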
Details: for pIC50: curve of first compound; for viability, T/C: stronger effect = lower value
Procedure, shortened: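 Complex solid-tumor spheroids incorporating human endothelial and mesenchymal stem cells received single agents or combinations over half-log dilution ranges anchored to clinical Cmax.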

[1] = second compound 0.1 µM, first compound 0.00316 µM
[2] = second compound 0.1 µM, first compound 0.01 µM
[3] = second compound 0.1 µM, first compound 0.0316 µM
[4] = second compound 0.1 µM, first compound 0.1 µM
[5] = second compound 0.316 µM, first compound 0.00316 µM
[6] = second compound 0.316 µM, first compound 0.01 µM
[7] = second compound 0.316 µM, first compound 0.0316 µM
[8] = second compound 0.316 µM, first compound 0.1 µM
[9] = second compound 1 µM, first compound 0.00316 µM
[10] = second compound 1 µM, first compound 0.01 µM
[11] = second compound 1 µM, first compound 0.0316 µM
[12] = second compound 1 µM, first compound 0.1 µM
[13] = second compound 3.16 µM, first compound 0.00316 µM
[14] = second compound 3.16 µM, first compound 0.01 µM
[15] = second compound 3.16 µM, first compound 0.0316 µM
[16] = second compound 3.16 µM, first compound 0.1 µM
[17] = second compound 10 µM, first compound 0.00316 µM
[18] = second compound 10 µM, first compound 0.01 µM
[19] = second compound 10 µM, first compound 0.0316 µM
[20] = second compound 10 µM, first compound 0.1 µM

NC(=O)C(=Cn1cnc(-c2cc(C(F)(F)F)cc(C(F)(F)F)c2)n1)c1cncnc1 + Cc1c(S(C)(=O)=O)c(-c2cc(F)cc(N3CCN(c4ccc(NS(=O)(=O)c5ccc(NC(CCN6CCC(C(=O)OCCCP(=O)(O)O)CC6)CSc6ccccc6)c(S(=O)(=O)C(F)(F)F)c5)cc4)CC3)c2)c(-c2ccc(Cl)cc2)n1C(C)C
pIC50 (second compound 0.1 µM): 7.95
pIC50 (second compound 0.316 µM): > 9.02
pIC50 (second compound 1 µM): > 9.02
pIC50 (second compound 3.16 µM): > 9.02
pIC50 (second compound 10 µM): > 9.02
viability, T/C (second compound 0.1 µM, first compound 0.000949 µM): 75.4%
viability, T/C (second compound 0.1 µM, first compound 0.003 µM): 77.7%
viability, T/C (second compound 0.1 µM, first compound 0.00949 µM): 51.9%
viability, T/C (second compound 0.1 µM, first compound 0.03 µM): 24.1%
viability, T/C (second compound 0.1 µM, first compound 0.0949 µM): 8.22%
viability, T/C (second compound 0.1 µM, first compound 0.3 µM): 3.52%
viability, T/C (second compound 0.316 µM, first compound 0.000949 µM): 38.6%
viability, T/C (second compound 0.316 µM, first compound 0.003 µM): 29.7%
viability, T/C (second compound 0.316 µM, first compound 0.00949 µM): 20.7%
viability, T/C (second compound 0.316 µM, first compound 0.03 µM): 10.5%
viability, T/C (second compound 0.316 µM, first compound 0.0949 µM): 3.84%
viability, T/C (second compound 0.316 µM, first compound 0.3 µM): 1.35%
viability, T/C (second compound 1 µM, first compound 0.000949 µM): 8.75%
viability, T/C (second compound 1 µM, first compound 0.003 µM): 8.33%
viability, T/C (second compound 1 µM, first compound 0.00949 µM): 5.84%
viability, T/C (second compound 1 µM, first compound 0.03 µM): 3.45%
viability, T/C (second compound 1 µM, first compound 0.0949 µM): 1.82%
viability, T/C (second compound 1 µM, first compound 0.3 µM): 0.83%
viability, T/C (second compound 3.16 µM, first compound 0.000949 µM): 2.8%
viability, T/C (second compound 3.16 µM, first compound 0.003 µM): 2.41%
viability, T/C (second compound 3.16 µM, first compound 0.00949 µM): 2.15%
viability, T/C (second compound 3.16 µM, first compound 0.03 µM): 2.26%
viability, T/C (second compound 3.16 µM, first compound 0.0949 µM): 1.59%
viability, T/C (second compound 3.16 µM, first compound 0.3 µM): 0.92%
viability, T/C (second compound 10 µM, first compound 0.000949 µM): 2.33%
viability, T/C (second compound 10 µM, first compound 0.003 µM): 1.83%
viability, T/C (second compound 10 µM, first compound 0.00949 µM): 2.16%
viability, T/C (second compound 10 µM, first compound 0.03 µM): 2.37%
viability, T/C (second compound 10 µM, first compound 0.0949 µM): 1.29%
viability, T/C (second compound 10 µM, first compound 0.3 µM): 0.5%

NC1CCC(NC2CC2c2ccccc2)CC1 (stereo not given) + Cc1c(S(C)(=O)=O)c(-c2cc(F)cc(N3CCN(c4ccc(NS(=O)(=O)c5ccc(NC(CCN6CCC(C(=O)OCCCP(=O)(O)O)CC6)CSc6ccccc6)c(S(=O)(=O)C(F)(F)F)c5)cc4)CC3)c2)c(-c2ccc(Cl)cc2)n1C(C)C
pIC50 (second compound 0.1 µM): < 7.00
pIC50 (second compound 0.316 µM): > 9.50
pIC50 (second compound 1 µM): > 9.50
pIC50 (second compound 3.16 µM): > 9.50
pIC50 (second compound 10 µM): > 9.50
viability, T/C (second compound 0.1 µM, first compound 0.000316 µM): 66.5%
viability, T/C (second compound 0.1 µM, first compound 0.001 µM): 69%
viability, T/C [1]: 61.8%
viability, T/C [2]: 65.1%
viability, T/C [3]: 65.7%
viability, T/C [4]: 64.3%
viability, T/C (second compound 0.316 µM, first compound 0.000316 µM): 45.1%
viability, T/C (second compound 0.316 µM, first compound 0.001 µM): 43.2%
viability, T/C [5]: 34.7%
viability, T/C [6]: 40.1%
viability, T/C [7]: 38.8%
viability, T/C [8]: 38.8%
viability, T/C (second compound 1 µM, first compound 0.000316 µM): 12.5%
viability, T/C (second compound 1 µM, first compound 0.001 µM): 14.6%
viability, T/C [9]: 16.3%
viability, T/C [10]: 11.2%
viability, T/C [11]: 16.2%
viability, T/C [12]: 15.7%
viability, T/C (second compound 3.16 µM, first compound 0.000316 µM): 1.88%
viability, T/C (second compound 3.16 µM, first compound 0.001 µM): 1.85%
viability, T/C [13]: 2.09%
viability, T/C [14]: 1.09%
viability, T/C [15]: 1.14%
viability, T/C [16]: 2.64%
viability, T/C (second compound 10 µM, first compound 0.000316 µM): 1.53%
viability, T/C (second compound 10 µM, first compound 0.001 µM): 1.86%
viability, T/C [17]: 1.9%
viability, T/C [18]: 1.64%
viability, T/C [19]: 2.09%
viability, T/C [20]: 1.63%

O=C(c1ccc(F)c(F)c1Nc1ccc(I)cc1F)N1CC(O)([C@@H]2CCCCN2)C1 + Cc1c(S(C)(=O)=O)c(-c2cc(F)cc(N3CCN(c4ccc(NS(=O)(=O)c5ccc(NC(CCN6CCC(C(=O)OCCCP(=O)(O)O)CC6)CSc6ccccc6)c(S(=O)(=O)C(F)(F)F)c5)cc4)CC3)c2)c(-c2ccc(Cl)cc2)n1C(C)C
pIC50 (second compound 0.1 µM): < 6.00
pIC50 (second compound 0.316 µM): > 8.50
pIC50 (second compound 1 µM): > 8.50
pIC50 (second compound 3.16 µM): > 8.50
pIC50 (second compound 10 µM): > 8.50
viability, T/C [1]: 84.2%
viability, T/C [2]: 81.2%
viability, T/C [3]: 80.8%
viability, T/C [4]: 83.7%
viability, T/C (second compound 0.1 µM, first compound 0.316 µM): 71.5%
viability, T/C (second compound 0.1 µM, first compound 1 µM): 59.1%
viability, T/C [5]: 46.5%
viability, T/C [6]: 50.1%
viability, T/C [7]: 44.7%
viability, T/C [8]: 37.9%
viability, T/C (second compound 0.316 µM, first compound 0.316 µM): 28.8%
viability, T/C (second compound 0.316 µM, first compound 1 µM): 33.4%
viability, T/C [9]: 13.9%
viability, T/C [10]: 11.9%
viability, T/C [11]: 10.4%
viability, T/C [12]: 5.1%
viability, T/C (second compound 1 µM, first compound 0.316 µM): 2.22%
viability, T/C (second compound 1 µM, first compound 1 µM): 2.04%
viability, T/C [13]: 2.87%
viability, T/C [14]: 2.41%
viability, T/C [15]: 2.22%
viability, T/C [16]: 0.97%
viability, T/C (second compound 3.16 µM, first compound 0.316 µM): 0.48%
viability, T/C (second compound 3.16 µM, first compound 1 µM): 0.27%
viability, T/C [17]: 2.15%
viability, T/C [18]: 1.85%
viability, T/C [19]: 1.55%
viability, T/C [20]: 0.9%
viability, T/C (second compound 10 µM, first compound 0.316 µM): 1.3%
viability, T/C (second compound 10 µM, first compound 1 µM): 0.32%
